According to patent publication US20080114066A1, “Synergistic Effects Of Docosahexaenoic Acid (DHA) And Carotenoid Absorption Of Cognitive Function” (Trustees of Tufts College, priority 2005, published 2008):

Columns and labels:
Type in all cases: in vivo, human
[1] = test system: non-smoking women (60-80 years); experiment: Word List Memory Test; conditions: group mean
Text: (§1) Subjects: Fifty non-smoking women (60-80 years) were recruited from the general population for a 4 month supplementation study. All subjects underwent a screening examination that includes a medical history, a physical examination, and a routine blood clinical chemistry profile. Volunteers with any history or biochemical evidence of lactose intolerance, liver, kidney, or pancreatic disease, anemia, active bowel disease or resection, insulin-dependent diabetes, easy bruising or bleeding, bleeding disorders, hyperglyceridemia, hyperlipidproteinemia, or alcoholism were excluded from the study. Moreover, individuals taking mineral oil or medications suspected of interfering with fat-soluble vitamin absorption were excluded. Subjects using steroids or non-steroid anti-inflammatory drugs, or antihistamine drugs were excluded. […] Subjects were excluded if they have taken any nutrient supplement for 2 months or more before admission into the study or carotene supplements 6 months or more before the study. Smoking was not permitted during the course of the study.
(§2) Women were randomly assigned to one of four groups: Control (n=10), DHA (n=14, DHA 800 mg/d), lutein (n=12, lutein 12 mg/d), and lutein+DHA (n=14, lutein 12 mg/d; DHA 800 mg/d) (C, D, L, and LD, respectively). The supplement type was randomized. Subjects visited the Jean Mayer USDA Human Nutrition Research Center on Aging at Tufts University on days that supplements were distributed and blood obtained (0 mo-baseline, 2 mo, and 4 mo). Subjects were instructed to take the supplement with a nutritional energy drink (8 oz., Boost®, Mead Johnson Nutritionals) but were otherwise asked to not alter their diets. The diet of each subject was monitored with food frequency questionnaires (Block G, et al., A data-based approach to diet questionnaire design and testing. Am J Epidemiol, 1986. 24: p. 453-469) completed at baseline, 2 months and 4 months to be sure that there were no confounding changes in dietary intake. All subjects completed at least two sets of cognitive and mood self-report tests, at the beginning of the study, then at the end of the study, after four months of supplementation, at the Schepens Eye Research Institute. Compliance was by monitored by interview, compliance calendars and capsule count. Both the subjects and the experimenter were masked to the experimental groups. Blood samples were collected at baseline, 2 months and 4 months, and serum was separated from red blood cells (800×g, 10 minutes). Aliquots of serum are stored at −70° C. until analyzed. At baseline and 2 months, a two month supply of placebo supplements, DHA (800 mg/d, DHASCO, Martek Biological Sciences), lutein (12 mg/d plus 0.5 mg zeaxanthin, Kemin Foods), or lutein+DHA (12 mg/d and 800 mg/d, respectively and nutritional energy drink was provided. At baseline and 4 months, subjects visited the Schepens Eye Research Institute (Boston, Mass.) for testing of MP optical density (MPOD) and an ophthalmic exam. There were two visits at each time point.
(§3) Supplementation Protocol. Dietary supplements in capsule form were Lutein (12 mg/day) (Kemin Foods) and Docosahexaenoic Acid (DHASCO) (800 mg/day) (Martek Biological Sciences). Participants in each of the four supplementation groups were instructed to drink one can of a nutritional supplement daily (Boost Plus) (Mead Johnson) when taking their capsules. Subjects ingested their dietary supplements daily for a period of 4 months. Both the subjects and the experimenter were masked to the experimental groups.
(§4) Tests and Measurements. The battery of cognitive tests included tests of memory and processing speed or attention and a measure of self-reported mood. […] Early cognitive markers of the incidence of dementia and mortality: A longitudinal population-based study of the oldest old. International Journal of Geriatric Psychiatry, 12, 53-59; Payton, M., Riggs, K. M., Spiro III, A., Weiss, S. T. & Hu, H. (1998). […]

[2] = test system: non-smoking women (60-80 years); experiment: NES2 Mood Scales (self-reported mood); design: scale not given here; conditions: group mean
Text: as §1, §2, §3, §4

[3] = test system: non-smoking women (60-80 years); experiment: Stroop Test (computerized); conditions: group mean; for Stroop Test Total RT, Interference (NC-C): subtask 4 minus subtask 3
Text: as §1, §2, §3, §4

[4] = test system: non-smoking women (60-80 years); experiment: MIR (Memory in Reality) apartment test; conditions: group mean
Text: as §1, §2, §3, §4

[5] = test system: non-smoking women (60-80 years); experiment: Shopping List Task (memory test); conditions: group mean
Text: as §1, §2, §3, §4

[6] = test system: serum lipoproteins (VLDL, LDL, HDL); experiment: Serum cholesterol, lipoproteins and lipoprotein subfractions by NMR spectroscopy; conditions: for Serum HDL concentration / Serum LDL concentration / Serum VLDL concentration / Serum total Cholesterol concentration: after 4 months of supplementation, mean ± se
Description: At study end (4 mo), serum was analyzed for total cholesterol, lipoproteins (VLDL, LDL, HDL) as well as lipoprotein subfractions using NMR spectroscopy (Otvos, J. D., Clin Lab, 2002. 48: p. 171-180). The NMR method employs the characteristic methyl group signals broadcast by lipoprotein subclasses of different size as the basis for their quantification. Each measurement includes the concentrations of 5 subclasses of HDL (larger numbers denoting larger subclasses), 3 subclasses of LDL and 6 subclasses of VLDL (V1-V6). Lipoprotein subclasses were grouped into large, intermediate and small subclasses. That is, large, intermediate, and small HDL were H5+H4, H3, and H2+H1, respectively. Large, intermediate and small LDL were L3, L2, and L1, respectively. And large, intermediate and small VLDL were V6+V5, V4+V3, and V2+V1, respectively.
Results are expressed as mean ±SE. Within each group, each subject was followed longitudinally and significant differences from baseline were measured using Student's paired t-test (Systat version10, Port Richmond, Calif. Group differences were measured using ANOVA followed by the Bonferroni post hoc test (Systat10).

[7] = test system: non-smoking women (60-80 years); experiment: NES2 Pattern Comparison (Pattern Recognition) Test; conditions: group mean
Text: as §1, §2, §3, §4

[8] = Baseline, before supplementation
[9] = Final, after 4 months of supplementation

In the case of CC/C=C\C/C=C\C/C=C\C/C=C\C/C=C\C/C=C\CCC(=O)O [DHA, cis-4,7,10,13,16,19-docosahexaenoic acid], the “Word List Memory Test Delayed Recall (max. 10)” value [1, 8] is reported as 8.1, the “Word List Memory Test Trial 1 Items Recalled (max. 10)” value [1, 8] is reported as 6.3 and the “Word List Memory Test Trials to Learned List (max. 4)” value (from here on “Word List Memory Test Trials”) [1, 8] is reported as 3.0. For the same compound, the “Word List Memory Test Delayed Recall (max. 10)” value [1, 9] was 8.6, the “Word List Memory Test Trial 1 Items Recalled (max. 10)” value [1, 9] was 5.9 and the “Word List Memory Test Trials” value [1, 9] was 3.0. The “Mood Scales Anger” value [2, 8] was 1.6, the “Mood Scales Confusion” value [2, 8] was 1.7 and the “Mood Scales Depression” value [2, 8] was 1.7. The “Mood Scales Fatigue” value [2, 8] was 2.1, the “Mood Scales Tension” value [2, 8] was 2.0 and the “Mood Scales Anger” value [2, 9] was 1.6. The “Mood Scales Confusion” value [2, 9] was 1.8, the “Mood Scales Depression” value [2, 9] was 1.7 and the “Mood Scales Fatigue” value [2, 9] was 2.1. The “Mood Scales Tension” value [2, 9] was 2.1, the “Stroop Test Mean RT, Name Colors” value [3, 8] was 838 ms and the “Stroop Test Mean RT, Name Colors-Words” value [3, 8] was 1269 ms. The “Stroop Test Mean RT, Read Words-Black” value [3, 8] was 879 ms, the “Stroop Test Mean RT, Read Words-Color” value [3, 8] was 715 ms and the “Stroop Test Total RT, Interference (NC-C)” value (“Stroop Test Total RT” for short) [3, 8] was 21.5 s. The “Stroop Test Mean RT, Name Colors” value [3, 9] was 884 ms, the “Stroop Test Mean RT, Name Colors-Words” value [3, 9] was 1277 ms and the “Stroop Test Mean RT, Read Words-Black” value [3, 9] was 748 ms. For the same compound, the “Stroop Test Mean RT, Read Words-Color” value [3, 9] was 727 ms, the “Stroop Test Total RT” value [3, 9] was 19.7 s and the “MIR Apartment Test Delayed Recall (max. 10)” value [4, 8] was 9.4. For the same compound, the “MIR Apartment Test Location Recall (max. 10)” value [4, 8] was 9.9, the “MIR Apartment Test Delayed Recall (max. 10)” value [4, 9] was 9.4 and the “MIR Apartment Test Location Recall (max. 10)” value [4, 9] was 10.0. For the same compound, the “Shopping List Memory Test Delayed Recall (max. 10)” value [5, 8] was 9.0, the “Shopping List Memory Test Trial 1 Items Recalled (max. 10)” value [5, 8] was 7.2 and the “Shopping List Memory Test Trials to Learned List (max. 6)” value (“Shopping List Memory Test Trials” for short) [5, 8] was 3.1. For the same compound, the “Shopping List Memory Test Delayed Recall (max. 10)” value [5, 9] was 8.7, the “Shopping List Memory Test Trial 1 Items Recalled (max. 10)” value [5, 9] was 7.7 and the “Shopping List Memory Test Trials” value [5, 9] was 2.6. For the same compound, the “Serum HDL concentration” value [6] was 67 ± 3 mg cholesterol/dL, the “Serum LDL concentration” value [6] was 125 ± 5 mg cholesterol/dL and the “Serum VLDL concentration” value [6] was 78 ± 14 mg cholesterol/dL. The “Serum total Cholesterol concentration” value [6] was 209 ± 5 mg cholesterol/dL, the “Pattern Recognition Test Mean Response Time-Correct” value [7, 8] was 5.4 s and the “Pattern Recognition Test Number Correct (max. 15)” value [7, 8] was 14.6. The “Pattern Recognition Test Mean Response Time-Correct” value [7, 9] was 5.0 s and the “Pattern Recognition Test Number Correct (max. 15)” value [7, 9] was 14.6.

With CC1=C[C@H](O)CC(C)(C)[C@H]1/C=C/C(C)=C/C=C/C(C)=C/C=C/C=C(C)/C=C/C=C(C)/C=C/C1=C(C)C[C@@H](O)CC1(C)C [Lutein, lutein] the “Word List Memory Test Delayed Recall (max. 10)” value [1, 8] was 6.8, the “Word List Memory Test Trial 1 Items Recalled (max. 10)” value [1, 8] was 5.8 and the “Word List Memory Test Trials” value [1, 8] was 3.4. The “Word List Memory Test Delayed Recall (max. 10)” value [1, 9] was 7.6, the “Word List Memory Test Trial 1 Items Recalled (max. 10)” value [1, 9] was 5.8 and the “Word List Memory Test Trials” value [1, 9] was 3.5. For the same compound, the “Mood Scales Anger” value [2, 8] was 1.4, the “Mood Scales Confusion” value [2, 8] was 1.9 and the “Mood Scales Depression” value [2, 8] was 1.5. The “Mood Scales Fatigue” value [2, 8] was 2.4, the “Mood Scales Tension” value [2, 8] was 2.1 and the “Mood Scales Anger” value [2, 9] was 1.5. The “Mood Scales Confusion” value [2, 9] was 2.4, the “Mood Scales Depression” value [2, 9] was 1.8 and the “Mood Scales Fatigue” value [2, 9] was 2.9. For the same compound, the “Mood Scales Tension” value [2, 9] was 2.4, the “Stroop Test Mean RT, Name Colors” value [3, 8] was 1008 ms and the “Stroop Test Mean RT, Name Colors-Words” value [3, 8] was 1492 ms. The “Stroop Test Mean RT, Read Words-Black” value [3, 8] was 844 ms, the “Stroop Test Mean RT, Read Words-Color” value [3, 8] was 753 ms and the “Stroop Test Total RT” value [3, 8] was 24.2 s. The “Stroop Test Mean RT, Name Colors” value [3, 9] was 1014 ms, the “Stroop Test Mean RT, Name Colors-Words” value [3, 9] was 1462 ms and the “Stroop Test Mean RT, Read Words-Black” value [3, 9] was 945 ms. The “Stroop Test Mean RT, Read Words-Color” value [3, 9] was 883 ms, the “Stroop Test Total RT” value [3, 9] was 22.4 s and the “MIR Apartment Test Delayed Recall (max. 10)” value [4, 8] was 8.3. For the same compound, the “MIR Apartment Test Location Recall (max. 10)” value [4, 8] was 9.5, the “MIR Apartment Test Delayed Recall (max. 10)” value [4, 9] was 8.6 and the “MIR Apartment Test Location Recall (max. 10)” value [4, 9] was 9.5. The “Shopping List Memory Test Delayed Recall (max. 10)” value [5, 8] was 8.3, the “Shopping List Memory Test Trial 1 Items Recalled (max. 10)” value [5, 8] was 6.9 and the “Shopping List Memory Test Trials” value [5, 8] was 4.2. For the same compound, the “Shopping List Memory Test Delayed Recall (max. 10)” value [5, 9] was 7.6, the “Shopping List Memory Test Trial 1 Items Recalled (max. 10)” value [5, 9] was 6.5 and the “Shopping List Memory Test Trials” value [5, 9] was 3.9. For the same compound, the “Serum HDL concentration” value [6] was 70 ± 5 mg cholesterol/dL, the “Serum LDL concentration” value [6] was 113 ± 6 mg cholesterol/dL and the “Serum VLDL concentration” value [6] was 75 ± 12 mg cholesterol/dL. For the same compound, the “Serum total Cholesterol concentration” value [6] was 199 ± 8 mg cholesterol/dL, the “Intermediate HDL subclass, group comparison” value ([6]; study end (4 mo)) was “significantly greater in the L group than in the LD group” and the “Pattern Recognition Test Mean Response Time-Correct” value [7, 8] was 6.1 s. For the same compound, the “Pattern Recognition Test Number Correct (max. 15)” value [7, 8] was 14.5, the “Pattern Recognition Test Mean Response Time-Correct” value [7, 9] was 6.4 s and the “Pattern Recognition Test Number Correct (max. 15)” value [7, 9] was 14.3.
